The values that follow are results of earlier work, collected in patent US6423320B1, “Inhibitor of immunoglobulin E antibody production” (Tayca Corporation, priority 1997, dated 2002).

Structures are written as SMILES. Counter-ions that a name gives are not always drawn.

In this series the test system is IgE antibody production. As to conditions: Bio Industry, Vol. 13, No. 12, pp. 42-50 (1996).

`CCOCC(O)COc1ccc(NC(=O)CC[S+](C)C)cc1` (stereo not shown) [IPD, Suplatast Tosylate]: the “Inhibitory action on the production of IgE antibody” value is listed as “extremely weak inhibitory action”.
